Laboratory results: the NIST ThermoML archive (doi:10.1007/s10765-008-0410-4)
± gives the expanded uncertainty stated by the source.

Settings: Liquid, Vibrating tube method

CCCCn1cc[n+](C)c1.F[B-](F)(F)F [1-butyl-3-methylimidazolium tetrafluoroborate]
Settings | mass density [kg/m3]
298.15 K, 280 kPa | 1211.19 ± 1.3
298.15 K, 5640 kPa | 1213.63 ± 1.4
298.15 K, 10620 kPa | 1215.85 ± 1.4
298.15 K, 15340 kPa | 1217.77 ± 1.4
298.15 K, 20640 kPa | 1220.29 ± 1.5
298.15 K, 25270 kPa | 1222.18 ± 1.5
298.15 K, 30050 kPa | 1223.93 ± 1.6
298.15 K, 35410 kPa | 1226.07 ± 1.6
298.15 K, 39610 kPa | 1227.81 ± 1.7
323.15 K, 730 kPa | 1192.89 ± 1.3
323.15 K, 5640 kPa | 1195.3 ± 1.3
323.15 K, 10610 kPa | 1197.71 ± 1.4
323.15 K, 15440 kPa | 1200.01 ± 1.4
323.15 K, 20460 kPa | 1202.37 ± 1.4
323.15 K, 25360 kPa | 1204.64 ± 1.5
323.15 K, 30740 kPa | 1207.09 ± 1.5
323.15 K, 35650 kPa | 1209.29 ± 1.6
323.15 K, 39850 kPa | 1211.14 ± 1.6
348.15 K, 210 kPa | 1174.44 ± 1.2
348.15 K, 5960 kPa | 1177.75 ± 1.3
348.15 K, 10480 kPa | 1180.3 ± 1.3
348.15 K, 15430 kPa | 1182.72 ± 1.3
348.15 K, 20870 kPa | 1185.63 ± 1.4
348.15 K, 25850 kPa | 1188.16 ± 1.4
348.15 K, 30110 kPa | 1190.19 ± 1.5
348.15 K, 35110 kPa | 1192.88 ± 1.5
348.15 K, 39610 kPa | 1194.77 ± 1.6
373.15 K, 470 kPa | 1157.24 ± 1.2
373.15 K, 5350 kPa | 1160.25 ± 1.2
373.15 K, 10080 kPa | 1163.09 ± 1.2
373.15 K, 15710 kPa | 1166.39 ± 1.3
373.15 K, 20970 kPa | 1169.38 ± 1.3
373.15 K, 25820 kPa | 1172.07 ± 1.4
373.15 K, 30120 kPa | 1174.39 ± 1.4
373.15 K, 35530 kPa | 1177.22 ± 1.5
373.15 K, 39820 kPa | 1179.41 ± 1.5
398.15 K, 870 kPa | 1141.05 ± 1.1
398.15 K, 6670 kPa | 1144.53 ± 1.2
398.15 K, 10490 kPa | 1147.07 ± 1.2
398.15 K, 15730 kPa | 1150.32 ± 1.2
398.15 K, 20980 kPa | 1153.78 ± 1.3
398.15 K, 25140 kPa | 1156.3 ± 1.3
398.15 K, 30890 kPa | 1159.52 ± 1.4
398.15 K, 35810 kPa | 1162.4 ± 1.4
398.15 K, 39560 kPa | 1164.38 ± 1.4
